This is an account of results in patent US12637471B2, “Heterocyclic compounds, compositions, methods of preparation and uses thereof” (Organon R&D Finland Ltd, priority 2021, dated 2026).

The conditions of data set [1]: phase II clinical trial, endometriosis; trial was terminated; cited from earlier work.
Data set [2] has as its target T1, Recombinant human aldo-keto reductase family 1 member C2 (AKR1C2) protein (Homo sapiens, UniProt P52895).
T1 construct: made in house; host or cells: Sf-9 insect cells (baculovirus)
T1 sequence (P52895 1-323): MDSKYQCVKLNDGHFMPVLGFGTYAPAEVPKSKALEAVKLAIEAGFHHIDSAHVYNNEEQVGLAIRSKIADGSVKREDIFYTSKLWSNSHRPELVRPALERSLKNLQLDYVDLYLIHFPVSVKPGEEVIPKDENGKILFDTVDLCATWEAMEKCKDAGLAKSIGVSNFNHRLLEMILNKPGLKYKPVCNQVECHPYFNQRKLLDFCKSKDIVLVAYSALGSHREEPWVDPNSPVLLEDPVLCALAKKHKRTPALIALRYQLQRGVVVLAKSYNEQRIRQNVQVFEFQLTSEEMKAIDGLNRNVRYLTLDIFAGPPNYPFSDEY
The data set can be described thus: Inhibition of the aldo-keto reductase family 1 member C2, 3H-dihydrotestosterone conversion. As to conditions: inhibitor at 10 μM. The class given is biochemical. An outline of the steps: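 Single-point screen at 10 μM inhibitor, 1% DMSO: [3H]DHT (6.25 nM) reduction to 3α-diol by baculovirus-made AKR1C2 (13.6 nM), pH 7.4 phosphate buffer, 1 mM NADPH, 37 °C for 45 min. Radio-UPLC quantified product versus substrate to give percent inhibition.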

The target of data set [3] is T2, 17β-Hydroxysteroid Dehydrogenase Type 2 Enzyme (17β-HSD2) (Homo sapiens, UniProt P37059).
T2 construct: made in house; host or cells: Sf-9 insect cells (baculovirus)
T2 sequence (P37059 1-387): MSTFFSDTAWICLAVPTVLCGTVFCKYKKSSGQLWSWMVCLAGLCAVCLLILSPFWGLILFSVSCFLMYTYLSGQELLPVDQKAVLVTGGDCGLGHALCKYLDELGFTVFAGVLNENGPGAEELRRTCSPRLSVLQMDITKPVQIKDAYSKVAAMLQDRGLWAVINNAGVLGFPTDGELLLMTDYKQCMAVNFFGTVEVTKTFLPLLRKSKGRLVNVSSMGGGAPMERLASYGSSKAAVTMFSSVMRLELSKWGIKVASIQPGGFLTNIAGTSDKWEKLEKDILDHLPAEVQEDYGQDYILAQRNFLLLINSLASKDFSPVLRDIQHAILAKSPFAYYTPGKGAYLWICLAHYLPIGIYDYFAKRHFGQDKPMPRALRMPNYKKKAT
Kind of data set: Inhibition of the 17β-hydroxysteroid dehydrogenase type 2 enzyme, 3H-testosterone conversion. The class given is biochemical. The conditions noted are these: inhibitor at 10 μM. The essentials:
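Single-point screen at 10 μM inhibitor, 1% DMSO: Sf-9-expressed human enzyme (105 nM), NAD 1 mM, ³H-labelled testosterone 56.25 nM, pH 8.5 phosphate/EDTA buffer, 30 min, room temperature. After TCA quench, substrate and product radioactivity quantified by UPLC with scintillation detection; inhibition percent from conversion.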

Data set [4] addresses T3, Recombinant human AKR1C3 (17β-HSD5) protein (Homo sapiens, UniProt P42330).
T3 construct: made in house; host or cells: E. coli
T3 sequence (P42330 1-323): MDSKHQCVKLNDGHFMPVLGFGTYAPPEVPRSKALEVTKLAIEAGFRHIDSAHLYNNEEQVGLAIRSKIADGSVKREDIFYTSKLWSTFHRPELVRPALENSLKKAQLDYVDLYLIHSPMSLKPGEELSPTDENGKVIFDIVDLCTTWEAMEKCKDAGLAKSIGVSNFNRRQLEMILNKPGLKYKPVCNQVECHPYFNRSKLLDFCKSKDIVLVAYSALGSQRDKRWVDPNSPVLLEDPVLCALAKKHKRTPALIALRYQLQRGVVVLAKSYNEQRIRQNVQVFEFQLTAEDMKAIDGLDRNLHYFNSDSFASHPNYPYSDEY
Kind of data set: Inhibition of AKR1C3 (17β-hydroxysteroid dehydrogenase type 5) enzyme, fluorescence assay. The class given is biochemical. As to conditions: inhibitor at 500 nM. An outline of the steps:
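Percent inhibition at 500 nM compound, derived from substrate conversion; product alcohol measured by fluorescence (ex 420, em 510 nm) against a 1 μM–10 nM standard curve. Reaction: 27 nM recombinant AKR1C3, 1 μM ketone substrate, 1 mM NADPH, phosphate/EDTA buffer pH 7.4, 1% DMSO, RT for 60–120 min.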

Structures are written as SMILES.

Regarding `CN(CCC(=O)O)C(=O)c1ccc2c(c1)CC[C@@H]1[C@@H]2CC[C@]2(C)C(c3cncc(F)c3)=CC[C@@H]12` [BAY-1128688], the “bilirubin levels of patients” value in data set [1] is “raised bilirubin levels”.

The term inhibition denotes the change of the read-out against control, counted positive when it falls. Consider `N#CC(=C1CCN(C(=O)N2CCn3nncc3C2)CC1)c1ccc(C(F)(F)F)cc1` [Compound 150, 2-(1-(4,5,6,7-tetrahydro-[1,2,3]triazolo[1,5-a]pyrazine-5-carbonyl)piperidin-4-ylidene)-2-(4-(trifluoromethyl)phenyl)acetonitrile], for which the inhibition at 10 µM was found to be 21% in data set [2] and 6% in data set [3]. For the same compound, the inhibition at 0.5 µM in data set [4] was found to be 100%.

Take `N#CC(=C1CCN(C(=O)N2CCc3[nH]ncc3C2)CC1)c1ccc(F)c(F)c1` [Compound 43, 2-(3,4-difluorophenyl)-2-(1-(4,5,6,7-tetrahydro-1H-pyrazolo[4,3-c]pyridine-5-carbonyl)piperidin-4-ylidene)acetonitrile]: the figures for the inhibition at 10 µM in data set [2] and in data set [3] were 29% and 21%, respectively. For the same compound, in data set [4], the inhibition at 0.5 µM came to 103%.

Regarding `CC(=O)N1CCN(C(=O)N2CCC(=C(C#N)c3ccc(F)cc3)CC2)CC1` [Compound 143, 2-(1-(4-acetylpiperazine-1-carbonyl)piperidin-4-ylidene)-2-(4-fluorophenyl)acetonitrile], the inhibition at 10 µM in data set [2] was 9%; in data set [3], 7%. For the same compound, the inhibition at 0.5 µM in data set [4] worked out at 93%.

`N#CC(=C1CCN(C(=O)N2C[C@@H]3CC[C@@H]2C3)CC1)c1ccc(F)c(F)c1` [Compound 34, 2-(1-((1R,4R)-2-azabicyclo[2.2.1]heptane-2-carbonyl)piperidin-4-ylidene)-2-(3,4-difluorophenyl)acetonitrile]: the inhibition at 10 µM in data set [2] worked out at 12%; in data set [3], 21%. Also, the inhibition at 0.5 µM in data set [4] was 95%.

Turning to `N#CC(=C1CCN(C(=O)N2CCC(C(F)(F)F)CC2)CC1)c1ccc(F)cc1` [Compound 98, 2-(4-fluorophenyl)-2-(1-(4-(trifluoromethyl)piperidine-1-carbonyl)piperidin-4-ylidene)acetonitrile], the figures for the inhibition at 10 µM in data set [2] and in data set [3] were 8% and 18%, respectively. In data set [4], the inhibition at 0.5 µM was 97%.

Consider `C[C@@H]1CCCCN1C(=O)N1CCC(=C(C#N)c2ccc(F)cc2)CC1` [Compound 110, (R)-2-(4-fluorophenyl)-2-(1-(2-methylpiperidine-1-carbonyl)piperidin-4-ylidene)acetonitrile], for which the inhibition at 10 µM in data set [2] is 6%; in data set [3], 30%. The inhibition at 0.5 µM in data set [4] is 96%.

With `N#CC(=C1CCN(C(=O)N2CCCC2)CC1)c1ccc(F)cc1` [Compound 6, 2-(4-fluorophenyl)-2-(1-(pyrrolidine-1-carbonyl)piperidin-4-ylidene)acetonitrile], the inhibition at 10 µM turned out to be 8% in data set [2] and 10% in data set [3]. Further, in data set [4], the inhibition at 0.5 µM is 95%.

On to `N#CC(=C1CCN(C(=O)N2CCc3nocc3C2)CC1)c1ccc(F)cc1` [Compound 12, 2-(4-fluorophenyl)-2-(1-(4,5,6,7-tetrahydroisoxazolo[4,3-c]pyridine-5-carbonyl)piperidin-4-ylidene)acetonitrile], for which the inhibition at 10 µM was determined as 19% in data set [2] and 8% in data set [3]. Moreover, in data set [4], the inhibition at 0.5 µM stood at 99%.

Consider `N#CC(=C1CCN(C(=O)N2CCC(CCCO)CC2)CC1)c1ccc(Cl)cc1` [Compound 132, 2-(4-chlorophenyl)-2-(1-(4-(3-hydroxypropyl)piperidine-1-carbonyl)piperidin-4-ylidene)acetonitrile], for which the inhibition at 10 µM in data set [2] was found to be 8%; in data set [3] it was 17%. For the same compound, the inhibition at 0.5 µM in data set [4] worked out at 95%.

For `CN(C)C(=O)N1CCC(=C(C#N)c2ccc(F)cc2)CC1` [Compound 16, 4-(cyano(4-fluorophenyl)methylene)-N,N-dimethylpiperidine-1-carboxamide], the figures for the inhibition at 10 µM in data set [2] and in data set [3] were 8% and 14%, respectively. Moreover, the inhibition at 0.5 µM in data set [4] turned out to be 97%.

For the compound `N#CC(=C1CCN(C(=O)N2CCn3nncc3C2)CC1)c1cccc(Cl)c1` [Compound 155, 2-(3-chlorophenyl)-2-(1-(4,5,6,7-tetrahydro-[1,2,3]triazolo[1,5-a]pyrazine-5-carbonyl)piperidin-4-ylidene)acetonitrile], the results for the inhibition at 10 µM in data set [2] and in data set [3] were 21% and 19%, respectively. In addition, in data set [4], the inhibition at 0.5 µM came to 99%.

`N#CC(=C1CCN(C(=O)N2CC[C@H](O)C2)CC1)c1ccc(F)cc1` [Compound 9, (S)-2-(4-fluorophenyl)-2-(1-(3-hydroxypyrrolidine-1-carbonyl)piperidin-4-ylidene)acetonitrile]: the inhibition at 10 µM came out at 4% in data set [2] and 13% in data set [3]. In addition, the inhibition at 0.5 µM in data set [4] was 89%.

In the case of `N#CC(=C1CCN(C(=O)N2CCOCC2)CC1)c1ccc(Cl)cc1` [Compound 2, 2-(4-chlorophenyl)-2-(1-(morpholine-4-carbonyl)piperidin-4-ylidene)acetonitrile], the results for the inhibition at 10 µM in data set [2] and in data set [3] were 4% and 3%, respectively. The inhibition at 0.5 µM in data set [4] stood at 99%.

As for `N#CC(=C1CCN(C(=O)N2CCC(CO)CC2)CC1)c1ccc(Cl)s1` [Compound 63, 2-(5-chlorothiophen-2-yl)-2-(1-(4-(hydroxymethyl)piperidine-1-carbonyl)piperidin-4-ylidene)acetonitrile], the inhibition at 10 µM was found to be 29% in data set [2] and 22% in data set [3]. Further, in data set [4], the inhibition at 0.5 µM was determined as 99%.

As to `N#CC(=C1CCN(C(=O)N2CCC(CO)CC2)CC1)c1ccc(OC(F)(F)F)cc1` [Compound 53, 2-(1-(4-(hydroxymethyl)piperidine-1-carbonyl)piperidin-4-ylidene)-2-(4-(trifluoromethoxy)phenyl)acetonitrile], the inhibition at 10 µM in data set [2] stood at 7%; in data set [3] it was 15%. For the same compound, in data set [4], the inhibition at 0.5 µM was determined as 97%.

For the compound `COCC1CCN(C(=O)N2CCC(=C(C#N)c3cccc(Cl)c3)CC2)CC1` [Compound 153, 2-(3-chlorophenyl)-2-(1-(4-(methoxymethyl)piperidine-1-carbonyl)piperidin-4-ylidene)acetonitrile], the values for the inhibition at 10 µM in data set [2] and in data set [3] were 14% and 26%, respectively. Also, in data set [4], the inhibition at 0.5 µM is 95%.

Regarding `N#CC(=C1CCN(C(=O)N2CCC(S(N)(=O)=O)CC2)CC1)c1ccc(Cl)cc1` [Compound 126, 1-(4-((4-chlorophenyl)(cyano)methylene)piperidine-1-carbonyl)piperidine-4-sulfonamide], the values for the inhibition at 10 µM in data set [2] and in data set [3] were 10% and 2%, respectively. Also, the inhibition at 0.5 µM in data set [4] turned out to be 97%.

For `N#CC(=C1CCN(C(=O)N2CCC(O)CC2)CC1)c1ccc(Cl)s1` [Compound 57, 2-(5-chlorothiophen-2-yl)-2-(1-(4-hydroxypiperidine-1-carbonyl)piperidin-4-ylidene)acetonitrile], the values for the inhibition at 10 µM in data set [2] and in data set [3] were 13% and 3%, respectively. In addition, the inhibition at 0.5 µM in data set [4] stood at 96%.
